According to US20130303509A1, “NAMPT INHIBITORS” (AbbVie Inc., priority 2012, published 2013):

System: PC3 cells
Assay: NAMPT Cell Proliferation Assay
Assay type: cell-based
Details: Homo sapiens, PC-3, 120 h, 5 days incubation, cell viability by Cell Titer Glo
Procedure, shortened: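 Seeded at 500 cells/well in RPMI with 10% heat-inactivated FBS and left to attach overnight at 37° C, 5% CO2. Compounds were added as 10-fold dilutions […] for 5 days, then viability was read by CellTiter-Glo. IC50s came from sigmoidal fits of percent inhibition.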

Row | SMILES | IC50
1 | O=C(Nc1ccc(O[C@@H]2CCN(C(=O)c3cccc(OC(F)(F)F)c3)C2)cc1)C1CN(c2ccnnc2)C1 [Example 462, 1-(pyridazin-4-yl)-N-[4-({(3R)-1-[3-(trifluoromethoxy)benzoyl]pyrrolidin-3-yl}oxy)phenyl]azetidine-3-carboxamide] | 214 nM
2 | CC(C)Cn1cc(-c2ccc(C(=O)N[C@@H]3CCN(c4ccc(Cl)nn4)C3)s2)cn1 [Example 619, N-[(3R)-1-(6-chloropyridazin-3-yl)pyrrolidin-3-yl]-5-[1-(2-methylpropyl)-1H-pyrazol-4-yl]thiophene-2-carboxamide] | > 10000 nM
3 | CC(C)(C)C(=O)N1CC[C@@H](Oc2ccc(NC(=O)C3CN(c4cccnn4)C3)cc2)C1 [Example 523, N-(4-{[(3R)-1-(2,2-dimethylpropanoyl)pyrrolidin-3-yl]oxy}phenyl)-1-(pyridazin-3-yl)azetidine-3-carboxamide] | 0.99 nM
4 | O=C(Nc1ccc(C2CC3CCC(C2)N3C(=O)CCC(F)(F)F)cc1)C1CN(c2cccnn2)C1 (centres unmarked) [Example 841, 1-(pyridazin-3-yl)-N-{4-[8-(4,4,4-trifluorobutanoyl)-8-azabicyclo[3.2.1]oct-3-yl]phenyl}azetidine-3-carboxamide] | 3.55 nM
5 | CC(C)C(=O)N1CCC(c2ccc(NC(=O)C3CN(c4ccnnc4)C3)cc2)CC1 [Example 528, N-{4-[1-(2-methylpropanoyl)piperidin-4-yl]phenyl}-1-(pyridazin-4-yl)azetidine-3-carboxamide] | 19.2 nM
6 | O=C(Nc1ccc(C2CCN(C(=O)CC3CCOCC3)CC2)cc1)C1CN(c2cccnc2)C1 [Example 25, 1-(pyridin-3-yl)-N-{4-[1-(tetrahydro-2H-pyran-4-ylacetyl)piperidin-4-yl]phenyl}azetidine-3-carboxamide] | 1.41 nM
7 | O=C(Nc1ccc(C2CCN(C(=O)c3cscn3)CC2)cc1)C1CN(c2ccnnc2)C1 [Example 537, 1-(pyridazin-4-yl)-N-{4-[1-(1,3-thiazol-4-ylcarbonyl)piperidin-4-yl]phenyl}azetidine-3-carboxamide] | 3.3 nM
8 | O=C(Nc1ccc(O[C@@H]2CCN(C(=O)c3ccc(F)cc3F)C2)cc1)C1CN(c2ccnnc2)C1 [Example 467, N-(4-{[(3R)-1-(2,4-difluorobenzoyl)pyrrolidin-3-yl]oxy}phenyl)-1-(pyridazin-4-yl)azetidine-3-carboxamide] | 15.6 nM
9 | CCCC(=O)N1CCC(c2ccc(NC(=O)C3CN(c4cccnn4)C3)cc2)CC1 [Example 317, N-[4-(1-butanoylpiperidin-4-yl)phenyl]-1-(pyridazin-3-yl)azetidine-3-carboxamide] | 1.83 nM
10 | Cc1ncccc1N1CC(C(=O)Nc2ccc(C3CCN(C(=O)c4ccc(C(F)(F)F)cc4)CC3)cc2)C1 [Example 157, 1-(2-methylpyridin-3-yl)-N-(4-{1-[4-(trifluoromethyl)benzoyl]piperidin-4-yl}phenyl)azetidine-3-carboxamide] | 948 nM
11 | Cc1ncccc1N1CC(C(=O)Nc2ccc(C3CCN(C(=O)CCN(C)C)CC3)cc2)C1 [Example 168, N-{4-[1-(N,N-dimethyl-beta-alanyl)piperidin-4-yl]phenyl}-1-(2-methylpyridin-3-yl)azetidine-3-carboxamide] | 1010 nM
12 | O=C(Nc1ccc(OC2CCN(C(=O)c3ccc(F)cc3)CC2)cc1)C1CN(c2cccnn2)C1 [Example 230, N-(4-{[1-(4-fluorobenzoyl)piperidin-4-yl]oxy}phenyl)-1-(pyridazin-3-yl)azetidine-3-carboxamide] | 9.05 nM
13 | CC(C)(C)CCN1CCC(c2ccc(NC(=O)C3CN(c4cccnc4)C3)cc2)CC1 [Example 87, N-{4-[1-(3,3-dimethylbutyl)piperidin-4-yl]phenyl}-1-(pyridin-3-yl)azetidine-3-carboxamide] | 31.7 nM
14 | O=C(Nc1ccc(C2CCN(C(=O)c3ccccc3)CC2)cc1)C1CN(c2cccnc2)C1 [Example 26, N-[4-(1-benzoylpiperidin-4-yl)phenyl]-1-(pyridin-3-yl)azetidine-3-carboxamide] | 0.682 nM
15 | O=C(NCC(=O)N1CCC(c2ccc(NC(=O)C3CN(c4cccnn4)C3)cc2)CC1)c1ccccc1 [Example 413, N-{4-[1-(N-benzoylglycyl)piperidin-4-yl]phenyl}-1-(pyridazin-3-yl)azetidine-3-carboxamide] | 10 nM
16 | O=C(Nc1ccc(C2(F)CCN(C(=O)c3ccccc3)CC2)cc1)C1CN(c2cccnn2)C1 [Example 863, N-[4-(1-benzoyl-4-fluoropiperidin-4-yl)phenyl]-1-(pyridazin-3-yl)azetidine-3-carboxamide] | 5.67 nM
17 | O=C(Nc1ccc(C2CN(C(=O)c3ccccc3F)C2)cc1)[C@H]1CCN(c2cccnn2)C1 [Example 785, (3S)—N-{4-[1-(2-fluorobenzoyl)azetidin-3-yl]phenyl}-1-(pyridazin-3-yl)pyrrolidine-3-carboxamide] | 1.17 nM
18 | O=C(Nc1ccc(C2CCN(C(=O)c3ccccc3O)CC2)cc1)C1CN(c2cccnn2)C1 [Example 342, N-{4-[1-(2-hydroxybenzoyl)piperidin-4-yl]phenyl}-1-(pyridazin-3-yl)azetidine-3-carboxamide] | 2.3 nM

Next, values leading:

Row | IC50 | SMILES
19 | 712 nM | CC(C)Cn1cc(-c2ccc(C(=O)N[C@H]3CCN(c4cccnc4)C3)s2)cn1 [Example 608, 5-[1-(2-methylpropyl)-1H-pyrazol-4-yl]-N-[(3S)-1-(pyridin-3-yl)pyrrolidin-3-yl]thiophene-2-carboxamide]
20 | 11.4 nM | O=C(Nc1ccc(OC2CCN(CC3CC3)CC2)cc1)C1CN(c2cccnc2)C1 [Example 74, N-(4-{[1-(cyclopropylmethyl)piperidin-4-yl]oxy}phenyl)-1-(pyridin-3-yl)azetidine-3-carboxamide]
21 | 168 nM | O=C(Nc1ccc(OC2CN(C(=O)C3CCC(F)(F)CC3)C2)cc1)C1CN(c2ccnnc2)C1 [Example 202, N-[4-({1-[(4,4-difluorocyclohexyl)carbonyl]azetidin-3-yl}oxy)phenyl]-1-(pyridazin-4-yl)azetidine-3-carboxamide]
22 | 6.95 nM | O=C(Nc1ccc(OC2CCN(C(=O)C(F)(F)c3ccccc3)CC2)cc1)C1CN(c2cccnn2)C1 [Example 215, N-[4-({1-[difluoro(phenyl)acetyl]piperidin-4-yl}oxy)phenyl]-1-(pyridazin-3-yl)azetidine-3-carboxamide]
23 | 8.57 nM | COc1cccc(C(=O)N2CCC(c3ccc(NC(=O)[C@H]4CCN(c5cccnn5)C4)cc3)CC2)c1 [Example 720, (3S)-N-{4-[1-(3-methoxybenzoyl)piperidin-4-yl]phenyl}-1-(pyridazin-3-yl)pyrrolidine-3-carboxamide]
24 | 8.28 nM | Cc1c(F)cccc1C(=O)N1CCC(c2ccc(NC(=O)[C@H]3CCN(c4cccnn4)C3)cc2)CC1 [Example 685, (3S)-N-{4-[1-(3-fluoro-2-methylbenzoyl)piperidin-4-yl]phenyl}-1-(pyridazin-3-yl)pyrrolidine-3-carboxamide]
25 | 69.3 nM | O=C(Nc1ccc(C2CCN(C(=O)Cc3ccc(F)cc3)CC2)cc1)[C@H]1CCN(c2cccnn2)C1 [Example 675, (3S)-N-(4-{1-[(4-fluorophenyl)acetyl]piperidin-4-yl}phenyl)-1-(pyridazin-3-yl)pyrrolidine-3-carboxamide]
26 | 1130 nM | Cc1ncccc1N1CC(C(=O)Nc2ccc(C3CCN(C(=O)[C@@H]4CCC(=O)N4)CC3)cc2)C1 [Example 174, 1-(2-methylpyridin-3-yl)-N-{4-[1-(5-oxo-L-prolyl)piperidin-4-yl]phenyl}azetidine-3-carboxamide]
27 | 707 nM | O=C(Nc1ccc(S(=O)(=O)C2CCN(C(=O)Cc3ccccc3F)CC2)cc1)C1CN(c2cccnn2)C1 [Example 613, N-[4-({1-[(2-fluorophenyl)acetyl]piperidin-4-yl}sulfonyl)phenyl]-1-(pyridazin-3-yl)azetidine-3-carboxamide]
28 | 2 nM | O=C(Nc1ccc(C2CCN(C(=O)c3cccc(F)c3)CC2)cc1)C1CN(c2cccnn2)C1 [Example 348, N-{4-[1-(3-fluorobenzoyl)piperidin-4-yl]phenyl}-1-(pyridazin-3-yl)azetidine-3-carboxamide]
29 | 2720 nM | Cc1ncccc1N1CC[C@H](C(=O)Nc2ccc(C3CCN(C(=O)c4ccccc4F)CC3)cc2)C1 [Example 744, (3S)—N-{4-[1-(2-fluorobenzoyl)piperidin-4-yl]phenyl}-1-(2-methylpyridin-3-yl)pyrrolidine-3-carboxamide]
30 | > 10000 nM | O=C(Nc1ccc(C2CCN(C(=O)CCC(F)(F)F)CC2)cc1)C1CCN(c2cccnn2)CC1 [Example 628, 1-(pyridazin-3-yl)-N-{4-[1-(4,4,4-trifluorobutanoyl)piperidin-4-yl]phenyl}piperidine-4-carboxamide]
31 | 3.67 nM | CC1(C(=O)N2CCC(Oc3ccc(NC(=O)C4CN(c5cccnc5)C4)cc3)CC2)CCCCC1 [Example 53, N-[4-({1-[(1-methylcyclohexyl)carbonyl]piperidin-4-yl}oxy)phenyl]-1-(pyridin-3-yl)azetidine-3-carboxamide]
32 | 1.07 nM | CC1(C(=O)N2CCC(c3ccc(NC(=O)C4CN(c5cccnn5)C4)cc3)CC2)CC1 [Example 379, N-(4-{1-[(1-methylcyclopropyl)carbonyl]piperidin-4-yl}phenyl)-1-(pyridazin-3-yl)azetidine-3-carboxamide]
33 | 8.45 nM | O=C(Nc1ccc(O[C@@H]2CCN(C(=O)Cc3ccc(F)cc3)C2)cc1)C1CN(c2cccnn2)C1 [Example 491, N-[4-({(3R)-1-[(4-fluorophenyl)acetyl]pyrrolidin-3-yl}oxy)phenyl]-1-(pyridazin-3-yl)azetidine-3-carboxamide]
34 | 169 nM | CC(C)(O)C(=O)N1CCC(Oc2ccc(C(=O)NC3CN(c4cccnc4)C3)cc2)CC1 [Example 24, 4-{[1-(2-hydroxy-2-methylpropanoyl)piperidin-4-yl]oxy}-N-[1-(pyridin-3-yl)azetidin-3-yl]benzamide]
35 | 10 nM | O=C(Nc1ccc(O[C@@H]2CCN(C(=O)C3CCC(F)(F)CC3)C2)cc1)[C@H]1CCN(c2cccnn2)C1 [Example 781, (3S)-N-[4-({(3R)-1-[(4,4-difluorocyclohexyl)carbonyl]pyrrolidin-3-yl}oxy)phenyl]-1-(pyridazin-3-yl)pyrrolidine-3-carboxamide]
